Reference: US8119624B2, “Fused phenyl amido heterocyclic compounds” (Pfizer Inc., priority 2006, dated 2012)
Like-named read-outs stand apart in the source and are kept apart here.

Target: T1, Full-length glucokinase (beta cell isoform) (Homo sapiens, UniProt P35557)
T1 construct: Full-length glucokinase (beta cell isoform) was His-tagged at N-terminus; His tag (N); made in house
T1 sequence (P35557 1-465): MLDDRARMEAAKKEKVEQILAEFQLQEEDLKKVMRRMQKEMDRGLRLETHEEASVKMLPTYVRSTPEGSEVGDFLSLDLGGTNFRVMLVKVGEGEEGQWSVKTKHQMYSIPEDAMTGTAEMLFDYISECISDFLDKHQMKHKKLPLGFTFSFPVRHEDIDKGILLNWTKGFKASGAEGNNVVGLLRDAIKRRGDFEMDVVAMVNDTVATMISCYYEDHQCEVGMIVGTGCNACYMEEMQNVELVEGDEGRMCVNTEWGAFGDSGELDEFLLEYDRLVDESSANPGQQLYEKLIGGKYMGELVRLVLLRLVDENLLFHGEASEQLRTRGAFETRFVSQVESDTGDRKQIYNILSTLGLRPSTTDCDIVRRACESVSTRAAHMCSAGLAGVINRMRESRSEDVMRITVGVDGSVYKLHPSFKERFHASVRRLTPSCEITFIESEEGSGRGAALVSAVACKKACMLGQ
Test: Glucokinase biochemical assay (PK/LDH-coupled, NADH depletion at 340 nm): % activation, EC50, % max activation
Details: for activation at 10 µM: read-out: % Activation at 10 uM; for Emax: read-out: % Max Activation
How it was run: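 N-terminally His-tagged full-length human beta-cell glucokinase, room temperature, 5 mM glucose, 1 mM ATP, PK/LDH-coupled with 0.7 mM NADH, 1% DMSO final. Initial velocity from the 200–900 s slope of A340 decline. % activation = (Va/Vo−1)×100, measured across compound concentrations.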

[1] = 10 uM compound, 5 mM glucose, % Activation=(Va/Vo−1)×100
[2] = 5 mM glucose, GK activation, read-out: EC50
[3] = 5 mM glucose, fitted maximum activation
[4] = compound at 10 uM, 5 mM glucose, 1 mM ATP, room temperature

activation at 10 µM [1] [%]	EC50 [2] [µM]	Emax [3] [%]	SMILES	also measured
–	–	–	Cc1ccc(NC(=O)c2cc(Oc3ccc(C(=O)N4CCC4)c(F)c3)c3c(c2)OC(C)(CO)C3)nc1 (stereo not shown) [Example 240, 4-[4-(Azetidine-1-carbonyl)-3-fluoro-phenoxy]-2-hydroxymethyl-2-methyl-2,3-dihydro-benzofuran-6-carboxylic acid (5-methyl-pyridin-2-yl)-amide]	EC50 (EC50 (uM), 5 mM glucose, GK activation): 0.021 µM; activation at 10 µM: 83%; Emax: 94%
130	2.4	148	Cc1cc2c(Oc3ccc(S(C)(=O)=O)cn3)cc(C(=O)Nc3cnc(N(C)C)cn3)cc2o1 [Example 280, N[5-(Dimethylamino)pyrazin-2-yl]-2-methyl-4-{[5-(methylsulfonyl)pyridin-2-yl]oxy}-1-benzofuran-6-carboxamide]	–
195	0.65	179	COc1cnc(NC(=O)c2cc(Oc3ccc(S(=O)(=O)N4CCC4)cc3)c3cc(C)oc3c2)cn1 [Example 303, 4-(4-(Azetidin-1-ylsulfonyl)phenoxy)-N-(5-methoxypyrazin-2-yl)-2-methyl-benzofuran-6-carboxamide]	–
211	0.14	236	CN(C)S(=O)(=O)c1ccc(Oc2cc(C(=O)Nc3ccn(C)n3)cc3c2CC(C)(C)O3)cc1F [Example 130, 4-(4-Dimethylsulfamoyl-3-fluoro-phenoxy)-2,2-dimethyl-2,3-dihydro-benzofuran-6-carboxylic acid (1-methyl-1H-pyrazol-3-yl)-amide]	–
103	2.93	242	Cn1ccc(NC(=O)c2cc(Oc3ccc(S(C)(=O)=O)cc3)c3c(c2)OC(C(F)F)C3)n1 (stereo not shown) [Example 225, 2-Difluoromethyl-4-(4-methanesulfonyl-phenoxy)-2,3-dihydro-benzofuran-6-carboxylic acid (1-methyl-1H-pyrazol-3-yl)-amide]	–
89.8	> 10	–	COCC1(C)Cc2c(Oc3cc(F)ccc3S(C)(=O)=O)cc(C(=O)Nc3ccn(C)n3)cc2O1 (stereo not shown) [Example 238, 4-(5-Fluoro-2-methanesulfonyl-phenoxy)-2-methoxymethyl-2-methyl-2,3-dihydro-benzofuran-6-carboxylic acid (1-methyl-1H-pyrazol-3-yl)-amide]	–
112	5.3	148	CC(Oc1cc(C(=O)Nc2ccn(C)n2)cc2c1CC(C)(C)O2)c1ccccn1 (stereo not shown) [Example 81, 2,2-Dimethyl-4-(1-pyridin-2-yl-ethoxy)-2,3-dihydro-benzofuran-6-carboxylic acid (1-methyl-1H-pyrazol-3-yl)-amide]	–
107	2.8	137	COCC1Cc2c(Oc3ccc(S(C)(=O)=O)cc3)cc(C(=O)Nc3ccn(C)n3)cc2O1 (stereo not shown) [Example 201, 4-(4-Methanesulfonyl-phenoxy)-2-methoxymethyl-2,3-dihydro-benzofuran-6-carboxylic acid (1-methyl-1H-pyrazol-3-yl)-amide]	–
–	–	–	Cc1ccc(NC(=O)c2cc(Oc3ccc(S(C)(=O)=O)cc3)c3c(c2)C(=O)N(C)CC3)nc1 [Example 390, 2-Methyl-N-(5-methylpyridin-2-yl)-5-(4-(methylsulfonyl)-phenoxy)-1-oxo-1,2,3,4-tetrahydroisoquinoline-7-carboxamide]	activation at 10 µM [4]: 28.9%
52	0.46	49	CN(C)C(=O)c1ccc(Oc2cc(C(=O)Nc3ccncn3)cc3c2CC(C)(C)O3)cc1 [Example 156, 4-(4-Dimethylcarbamoyl-phenoxy)-2,2-dimethyl-2,3-dihydro-benzofuran-6-carboxylic acid pyrimidin-4-ylamide]	–
250	3.2	251	Cn1ncc(NC(=O)c2cc(Oc3ccc(C#N)c(F)c3)c3c(c2)OC(C)(C)C3)n1 [Example 184, 4-(4-Cyano-3-fluoro-phenoxy)-2,2-dimethyl-2,3-dihydro-benzofuran-6-carboxylic acid (2-methyl-2H-[1,2,3]triazol-4-yl)-amide]	–
69.9	0.19	70	Cc1ccc(NC(=O)c2cc(Oc3ccc(S(C)(=O)=O)cc3)c3cc(C)sc3c2)nc1 [Example 359, 4-(4-Methanesulfonyl-phenoxy)-2-methyl-benzo[b]thiophene-6-carboxylic acid (5-methyl-pyridin-2-yl)-amide]	–
244	0.29	237	Cn1ccc(NC(=O)c2cc(Oc3ccc(-c4ncon4)nc3)c3c(c2)OC(C)(C)C3)n1 [Example 182, 2,2-Dimethyl-4-(6-[1,2,4]oxadiazol-3-yl-pyridin-3-yloxy)-2,3-dihydro-benzofuran-6-carboxylic acid (1-methyl-1H-pyrazol-3-yl)-amide]	–
172	0.27	167	CO[C@H]1CCN(C(=O)c2ccc(Oc3cc(C(=O)Nc4ccn(C)n4)cc4c3CC(C)(C)O4)cc2F)C1 [Example 60, 4-[3-Fluoro-4-((S)-3-methoxy-pyrrolidine-1-carbonyl)-phenoxy]-2,2-dimethyl-2,3-dihydro-benzofuran-6-carboxylic acid(1-methyl-1H-pyrazol-3-yl)-amide]	–
161	6.3	235	Cn1ccc(NC(=O)c2cc(Oc3ccc(S(C)(=O)=O)cc3)c3cc(C(F)F)oc3c2)n1 [Example 322, 2-(Difluoromethyl)-N-(1-methyl-1H-pyrazol-3-yl)-4-[4-(methylsulfonyl)-phenoxy]-1-benzofuran-6-carboxamide]	–
–	–	–	Cn1ccc(NC(=O)c2cc(Oc3ccc(C(=O)N4CCCC4)nc3)c3c(c2)OC(C)(C)C3)n1 [Example 398, 2,2-Dimethyl-4-[6-(pyrrolidine-1-carbonyl)-pyridin-3-yloxy]-2,3-dihydro-benzofuran-6-carboxylic acid(1-methyl-1H-pyrazol-3-yl)-amide]	EC50 (5 mM glucose, 1 mM ATP, room temperature, read-out: EC50): 0.056 µM; activation at 10 µM [4]: 128%; Emax (fitted maximum activation, 5 mM glucose, 1 mM ATP): 114%
35	–	–	CN(C)C(=O)c1ccc(Oc2cc(C(=O)Nc3ccn(C)n3)cc3ccoc23)cc1 [Example 334, 7-{4-[(Dimethylamino)carbonyl]phenoxy}-N-(1-methyl-1H-pyrazol-3-yl)-1-benzofuran-5-carboxamide]	–
83.3	0.0807	101	CN(C)C(=O)c1ccc(Oc2cc(C(=O)Nc3ccn(C)n3)cc3c2CC(C)(C)O3)cc1F [Example 54, 4-(4-Dimethylcarbamoyl-3-fluoro-phenoxy)-2,2-dimethyl-2,3-dihydro-benzofuran-6-carboxylic acid(1-methyl-1H-pyrazol-3-yl)-amide]	–
83.5	1.3	90	COCC1Cc2c(Oc3ccc(C(=O)N(C)C)cc3)cc(C(=O)Nc3ccn(C)n3)cc2O1 (stereo not shown) [Example 211, 4-(4-Dimethylcarbamoyl-phenoxy)-2-methoxymethyl-2,3-dihydro-benzofuran-6-carboxylic acid (1-methyl-1H-pyrazol-3-yl)-amide]	–
112	5.6	138	Cc1nc(COc2cc(C(=O)Nc3ccn(C)n3)cc3c2CC(C)(C)O3)cs1 [Example 90, 2,2-Dimethyl-4-(2-methyl-thiazol-4-ylmethoxy)-2,3-dihydro-benzofuran-6-carboxylic acid (1-methyl-1H-pyrazol-3-yl)-amide]	–
146	0.564	149	Cn1ccc(NC(=O)c2cc(Oc3ccc(C(=O)N4CC(F)(F)C4)cc3)c3c(c2)OC(C)(C)C3)n1 [Example 50, 4-[4-(3,3-Difluoro-azetidine-1-carbonyl)-phenoxy]-2,2-dimethyl-2,3-dihydro-benzofuran-6-carboxylic acid(1-methyl-1H-pyrazol-3-yl)-amide]	–
118	0.29	117	CC1(C)Cc2c(Oc3ccc(S(C)(=O)=O)cc3)cc(C(=O)Nc3ccc(CO)cn3)cc2O1 [Example 22, 4-(4-Methanesulfonyl-phenoxy)-2,2-dimethyl-2,3-dihydro-benzofuran-6-carboxylic acid (5-hydroxymethyl-pyridin-2-yl)-amide]	–
127	0.058	135	Cn1ccc(NC(=O)c2cc(Oc3ccc(C(=O)N4CCC4)c(F)c3)c3c(c2)OC(C)(CO)C3)n1 (stereo not shown) [Example 241, 4-[4-(Azetidine-1-carbonyl)-3-fluoro-phenoxy]-2-hydroxymethyl-2-methyl-2,3-dihydro-benzofuran-6-carboxylic acid (1-methyl-1H-pyrazol-3-yl)-amide]	–
111	1.4	119	Cc1cc2c(Oc3ccc(S(C)(=O)=O)cc3)cc(C(=O)Nc3ccccn3)cc2o1 [Example 257, 2-Methyl-4-(4-(methylsulfonyl)phenoxy)-N-(pyridin-2-yl)-benzofuran-6-carboxamide]	–
